Source: PubChem BioAssay (NCI)
Several values for one entry are separate records, joined by “and”; a condition that tells them apart may be missing. Equal entries are not always repeated.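 Each compound was tested at five concentrations against cells in 96-well plates for 48 hours. The concentration for 50% growth inhibition is given as GI50. TGI marks complete inhibition of growth.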

What was measured:
Assay in all cases: NCI-60 cell line screen, 48 h
HCC-2998 colon = test system: HCC-2998 colon
HT29 colon = test system: HT29 colon
KM12 colon = test system: KM12 colon
M14 melanoma = test system: M14 melanoma
MDA-MB-231 breast = test system: MDA-MB-231 breast
NCI-H226 lung = test system: NCI-H226 lung
OVCAR-4 ovarian = test system: OVCAR-4 ovarian
OVCAR-8 ovarian = test system: OVCAR-8 ovarian
SR leukemia = test system: SR leukemia
SW-620 colon = test system: SW-620 colon

SMILES | TGI (HCC-2998 colon) [µM] | GI50 (HT29 colon) [µM] | TGI (HT29 colon) [µM] | GI50 (KM12 colon) [µM] | TGI (KM12 colon) | GI50 (M14 melanoma) [µM] | TGI (M14 melanoma) | TGI (MDA-MB-231 breast) [µM] | GI50 (NCI-H226 lung) [µM] | GI50 (OVCAR-4 ovarian) [µM] | TGI (OVCAR-4 ovarian) | GI50 (OVCAR-8 ovarian) [µM] | TGI (OVCAR-8 ovarian) | TGI (SR leukemia) [µM] | GI50 (SW-620 colon) [µM] | TGI (SW-620 colon) | GI50 (HCC-2998 colon) [µM] | GI50 (MDA-MB-231 breast) [µM] | TGI (NCI-H226 lung) [µM] | GI50 (SR leukemia) [µM]
C[C@H]1CC(=O)[C@@]2(O)C#C/C=C\C#C[C@@H]3Nc4c(cc(O)c5c4C(=O)c4ccccc4C5=O)[C@]24O[C@]314 | 0.0595 | 0.0253 | > 25 | 0.128 | 0.226 µM and 0.48 µM | 0.0025 | 0.0645 µM and 0.0371 µM | > 25 | 0.0025 | 0.351 | 0.648 µM and 1.92 µM | 0.00468 | 0.124 µM and 0.258 µM | 0.0426 | 0.0059 | 0.306 µM and 0.337 µM | – | – | – | –
COc1cc(C(=O)c2c(-c3ccccc3)oc3ccccc23)cc(OC)c1O | 20.4 | 9.78 | > 100 | 3.99 | 16.5 µM | 0.58 | 10.7 µM | 22.5 | 8.14 | 5.46 | 24.4 µM | 4.8 | 83.9 µM | 23.9 | 0.96 | 26.9 µM | 5.2 | 4.24 | 37.2 | 0.377
Cc1cc(I)cc(CN(C)CCCCN2CCCC2)c1O | 36.3 | 5.7 | 22 | 19.8 | 53.9 µM | 15.1 | 29.1 µM | 51.1 | 30 | 41.6 | > 100 µM | 37.2 | > 100 µM | 29.4 | 17.2 | 39.6 µM | 18 | 18.8 | > 100 | 11.5
O=C(/C=C/c1cccs1)Nc1ncc(Cc2ccccc2F)s1 | > 100 | 0.21 | > 100 | 0.205 | > 100 µM | 0.12 | – | > 100 | – | 0.791 | > 100 µM | 0.508 | > 100 µM | > 100 | 0.159 | > 100 µM | 0.463 | 0.611 | > 100 | 0.0522
CCc1ccc(/C=C2/SC(=S)NC2=O)cc1 | 45.7 | 27.9 | > 80 | 25.1 | > 77.3 µM | 24.3 | 82.8 µM | 46.7 | 20.3 | 20 | > 93.3 µM | 25.9 | > 88.8 µM | > 84.9 | 27.2 | > 100 µM | 18.8 | 18.9 | 71.3 | 19.4
CC(Cl)CC(=O)Nc1ccc2c(c1)oc(=O)c1cc(NC(=O)CC(C)Cl)ccc12 (stereo not drawn) | > 100 | 12.2 | 34.5 | 7.44 | 24.4 µM | 12.4 | 37.5 µM | 23.7 | 23.6 | 11.3 | 29.4 µM | 10.4 | 28.8 µM | 20.7 | 33.3 | > 100 µM | 34.9 | 1.98 | > 100 | 3.42
O=C(Nc1ccc(-c2nc3ccc(NC(=O)c4ccc(Cl)cc4)cc3[nH]2)cc1)c1ccc(Cl)cc1 | 21.4 | 2.11 | 6.89 | 2.16 | 5.38 µM | 5.28 | 18 µM | 15.4 | 15.1 | 1.76 | 3.47 µM | 1.73 | 6.93 µM | 4.34 | 2.35 | 8.46 µM | 7.47 | 3.68 | 31.8 | 0.769
CCn1cc(C2NC(=O)c3cc(F)ccc3N2)c2cccc(Cl)c21 (stereo not drawn) | > 25.5 | 0.276 | > 100 | 0.277 | > 100 µM | 0.138 | > 100 µM | > 100 | 0.664 | 2.53 | > 100 µM | 0.408 | > 100 µM | > 100 | 0.193 | > 100 µM | 0.348 | 0.503 | 9.63 | 0.039
O=C(N/N=C\c1cc(Cl)ccc1O)N/N=C/c1cc(Cl)ccc1O | > 100 | 9.57 | > 100 | 13.1 | > 100 µM | 5.24 | > 100 µM | > 100 | > 100 | 0.871 | > 100 µM | 1.77 | > 100 µM | > 100 | 0.807 | > 100 µM | 3.34 | 4.3 | > 100 | 78.5
COc1cc(C=NCC(=O)CSC(c2ccccc2)c2ccccc2)cc(OC)c1OC | 57.3 | 8 | 83.6 | 25.3 | 82.1 µM | 27 | > 100 µM | > 100 | 17.9 | 5.18 | 64.4 µM | 19.2 | > 100 µM | > 100 | 32.7 | > 100 µM | 23 | 18.1 | > 100 | 14
O=C(O)CCN1C(=O)/C(=C/C(Cl)=C/c2ccccc2)SC1=S | 3.38 | 2.57 | 5.88 | 2.01 | 4.64 µM | 2.24 | 8.32 µM | 11 | 6.46 | 4.79 | 18 µM | 3.27 | 22.2 µM | 5.47 | 2.3 | 6.32 µM | 1.88 | 3.38 | 95.9 | 0.929
Cc1ccc(Nc2ccnc(Nc3cccc(C(N)=O)c3)n2)cc1O | > 25 | 13.9 | > 25 | 7.27 | > 25 µM | 5.87 | > 25 µM | > 25 | 5.43 | 6.19 | > 25 µM | 6.51 | > 25 µM | > 25 | 9.62 | > 25 µM | 12.6 | 4.27 | > 23.7 | 11.3
CC(C)=CCC[C@](C)(O)[C@H]1CC[C@]2(C)[C@@H]1CC[C@@H]1[C@@]3(C)CC[C@H](OC(=O)CCC(=O)O)C(C)(C)[C@@H]3CC[C@]12C | > 100 | 29.2 | > 100 | 18.5 | 41.2 µM | 73.6 | > 100 µM | 87.5 | 16.7 | 27.6 | > 100 µM | 35.5 | > 100 µM | 56.5 | 35.4 | > 100 µM | 30.6 | 30.1 | 40.3 | 19.4
C/C(=N\n1c(N)c(C#N)c(-c2ccc(Cl)cc2)c(C#N)c1=O)c1cccnc1 | > 100 | > 100 | > 100 | > 100 | > 100 µM | > 100 | > 100 µM | > 100 | > 100 | > 100 | > 100 µM | > 100 | > 100 µM | > 100 | > 100 | > 100 µM | > 100 | > 100 | > 100 | > 100
O=c1c2c(=NCCCN3CCCC3)cc3c(=O)n(CCCN4CCCC4)c(=O)c4c(NCCCN5CCCC5)cc(c(O)n1CCCN1CCCC1)c2c4-3 | 23.1 | 1.51 | 6.49 | 3.27 | 12.7 µM | 6.86 | 20.3 µM | 20.7 | 1.07 | 2.73 | – | 1.74 | 12.3 µM | 81.9 | 1.72 | 14.5 µM | 6.84 | 4.89 | 7.8 | 6.88
O=C(O)C(O)C(O)C1[O][Sb][O]C1CO (stereo not drawn) | > 100 | > 100 | > 100 | > 100 | > 100 µM | > 100 | > 100 µM | > 100 | > 100 | > 100 | > 100 µM | > 100 | > 100 µM | > 100 | > 100 | > 100 µM | > 100 | > 100 | > 100 | > 100
CN1C=CN(Cc2ccc(-c3ccccn3)nc2)[CH-]1.CN1C=CN(Cc2ccc(-c3ccccn3)nc2)[CH-]1.[Au+3] | > 42.7 | 1.96 | > 100 | 1.89 | > 38.2 µM | 2.82 | 20.6 µM | 15 | 5.65 | 0.769 | 14.1 µM | 3.19 | > 100 µM | 42.7 | 0.898 | 17.2 µM | 5.47 | 2.64 | > 64.2 | 0.372
CC(=O)OCC1OC(O[C@@H]2C[C@H]3C(C)(C)[C@H](OC(C)=O)CC[C@]3(C)[C@H]3CC[C@@H]4[C@]5(CC[C@@]4(C)[C@@]32C)O[C@@H]([C@H](O)C(C)(C)O)C[C@@H]5C)C(O)C(O)C1O (stereo partly drawn) | 15.9 | 1.83 | 4.28 | 2 | 7.68 µM | 5.01 | 17.6 µM | 22.3 | 10.7 | 3.35 | 16.4 µM | 9.35 | 23.7 µM | 12.9 | 10.4 | 22.9 µM | 3.64 | 10.2 | 28.2 | 3.08
COc1ccc2c3c([nH]c2c1)[C@H]1C[C@H]2[C@H](C[C@@H](O)[C@H](OC)[C@H]2C(=O)O)CN1CC3 | > 100 | – | > 100 | – | > 100 µM | – | > 100 µM | > 100 | – | – | > 100 µM | – | > 100 µM | > 100 | – | > 100 µM | – | – | > 100 | –
COc1cc(SC)ccc1C(=O)N1CCCC(C)C1 (stereo not drawn) | > 100 | > 100 | > 100 | > 100 | > 100 µM | > 100 | > 100 µM | > 100 | 80.4 | 58.6 | > 100 µM | > 100 | > 100 µM | > 100 | > 100 | > 100 µM | > 100 | > 100 | > 100 | > 100
Cc1cc(C#Cc2ccccc2)ccc1-n1c(/C=C/c2ccc(O)cc2)nc2ccccc2c1=O | 7.35 | 3.33 | 16.6 | 3.24 | 12.6 µM | 3.56 | 15.1 µM | 29.5 | 3.99 | 3.17 | 22.7 µM | 3.98 | > 100 µM | 29 | 4.08 | > 100 µM | 2.35 | 3.89 | > 100 | 2.45
COc1ccccc1OCC(O)CO (stereo not drawn) | > 100 | > 100 | > 100 | > 100 | > 100 µM | > 100 | > 100 µM | > 100 | > 100 | > 100 | > 100 µM | > 100 | > 100 µM | > 100 | > 100 | > 100 µM | > 100 | > 100 | > 100 | > 100
C[C@@H]1CC[C@H]2C(CN3CCN(CC4=C(C(F)(F)F)O[C@@H]5O[C@@]6(C)CC[C@H]7[C@H](C)CC[C@@H]4[C@@]57OO6)CC3)=C(C(F)(F)F)O[C@@H]3O[C@@]4(C)CC[C@@H]1[C@]32OO4 | > 100 | 1.42 | > 100 | 0.944 | > 26.6 µM | 5.74 | > 100 µM | > 27.7 | 2.81 | 3.17 | > 100 µM | 2.29 | > 100 µM | > 100 | 1.12 | > 100 µM | 10.5 | 7.85 | > 100 | 1.89
